Source: publication PMC8760490, “Discovery of novel furanylbenzamide inhibitors that target oncogenic tyrosine phosphatase SHP2 in leukemia cells” (The Journal of Biological Chemistry, 2021)

How the values were obtained:
MV4-11 AML cells = assay: Cell viability (CellTiter-Glo), MV4-11; assay type: cell-based; details: Homo sapiens, MV4-11, 72 h; 3 days in culture
Experimental: Inhibition of SHP2 has been reported to inhibit the growth of cancer cells including Kasumi-1 acute myeloid leukemia (AML) and KYSE-520 esophageal cancer cells ([30]). […] Thus, we treated two TNBC cell lines, BT-549 and MDA-MB-468, with SBI-4668 or the SHP2 allosteric inhibitor SHP099 at various concentrations and determined cell viability after 72 h, compared with the vehicle control (Fig. 4C). […] Next, we performed an 11-day colony formation assay with TNBC cells treated with SBI-4668 or SHP099 at 5, 10, or 20 μM (Fig. 4D).
Viability of AML and esophageal carcinoma cells was assessed using the ATP-depletion assay CellTiter-Glo (Promega). Cells were harvested at 1 × 10^6/ml to 2 × 10^6 cells/ml with cell numbers determined by trypan blue using the Countess Cell counter (Thermo Scientific) and resuspended in culture media. About 3000 cells (in 20 μl) were seeded in a 384-well format white and clear-bottom microplate (catalog no.: 781098; Greiner) spotted with test compound or vehicle control (DMSO) using an Echo 555 Liquid Handler. Cells were incubated for 3 days, before 10 μl of CellTiter-Glo reagent mix was added to each well and incubated for 10 min at RT. Luminescence was read on a Tecan Spark Multimode Microplate Reader, and data were analyzed using GraphPad Prism software.

SHP2cat = target: T1, SHP2cat (Homo sapiens, UniProt Q06124); assay: Mass spectrometry test for inhibitor:protein adducts; details: SHP2cat 5 μM, inhibitor 100 μM, 1-60 min
T1 construct: the SHP2 catalytic domain (SHP2cat; residues 248–527); made in house
T1 sequence (Q06124 248-527): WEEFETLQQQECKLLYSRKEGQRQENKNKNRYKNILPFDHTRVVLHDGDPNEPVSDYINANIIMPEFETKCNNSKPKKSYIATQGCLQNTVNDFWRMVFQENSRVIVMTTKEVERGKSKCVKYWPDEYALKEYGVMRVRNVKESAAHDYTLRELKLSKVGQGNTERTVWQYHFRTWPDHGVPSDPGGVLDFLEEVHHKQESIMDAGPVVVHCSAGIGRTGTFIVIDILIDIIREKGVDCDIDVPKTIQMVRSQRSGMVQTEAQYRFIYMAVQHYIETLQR
Experimental: PTPs contain a highly nucleophilic cysteine that is essential for catalytic activity but is susceptible to oxidation and covalent modifications, which abrogate its nucleophilic function and phosphatase activity ([26]). Because the methylenebenzothiophenone moiety of our inhibitors could potentially act as a Michael acceptor and thus covalently bind to the catalytic cysteine, we tested whether the observed inhibition of SHP2 was dependent on the preincubation time of inhibitor and enzyme. An irreversible covalent inhibitor may show time-dependent inhibition, with increased potency at longer incubation times. Conversely, the potency of a noncovalent inhibitor is expected to be insensitive to the time it is incubated with the enzyme. To test for time-dependent inhibition, SBI-2130 at ten different concentrations was preincubated with SHP2-E76K for 1, 5, 10, 20, or 60 min, before the DiFMUP substrate was added to the reaction mixture and initial rates were recorded (Fig. 3C). […] In addition, we used mass spectrometry to test whether inhibitor:protein adducts are being formed. Specifically, we incubated SHP2cat (5 μM) with SBI-4668 (100 μM) in assay buffer for various times (1, 5, 20, and 60 min) before trypsin proteolysis and subsequent mass spectrometry analysis. […] Finally, we performed a jump-dilution experiment to test for irreversible inhibition of SHP2. […]

For `O=C(Nc1ccccc1)c1cc(-c2ccc(/C=C3\Sc4ccccc4C3=O)o2)ccc1O` [SBI-4668, (Z)-2-Hydroxy-5-(5-((3-oxobenzo[b]thiophen-2(3H)-ylidene)methyl)furan-2-yl)-N-phenylbenzamide], the IC50 (MV4-11 AML cells) was 8.2 µM and the “inhibitor:protein adduct formation (mass spectrometry)” value (SHP2cat) was “no adduct formation”.
